Test results reported in article PMC7413254 (Nature Communications, 2020).
Where two headings read alike, the source gives them in different places.

Experiments:
PfCRT^Ecu1110 [1] = biological target: T1, PfCRT^Ecu1110 (Plasmodium falciparum, UniProt Q9N623, A220S/I356L/K76T/N326D); experiment: [3H]CQ uptake into Xenopus oocytes, cis-inhibition by unlabelled solute; format: cell-based; conditions: read-out: [3H]CQ transport (% PfCRTEcu1110 control), cis-inhibition, PfCRTEcu1110; SEM
Outline: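 Using pH 5.5 ND96 at 27.5 °C, uptake is followed for 1.5 h, stopped with ice-cold buffer, and quantified as accumulated radioactivity per oocyte after SDS lysis.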

non-expressing oocytes = format: cell-based, Xenopus laevis; conditions: total [3H]CQ transport; for Uptake of [3H]CQ (% non-expressing oocyte control), trans-stimulation: non-expressing oocytes, normalised to the oocyte type control; for Uptake of [3H]CQ (% PfCRTDd2 control), trans-stimulation, non-expressing oocytes: mean ± SEM, SEM
Outline: (§1)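 Oocytes (ten per treatment, ≥4 independent frogs/days) were preloaded by injecting VF-6 in 25 nL ND96 at pH 5.0, 5.5, 6.0 or 7.0, or Na^+-free choline buffer, then uptake run 1.5 h, 27.5 °C, ND96 pH 5.5 by default. Internal concentrations assumed ~400 nL oocyte volume.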

PfCRT^3D7 = PfCRT^3D7 (Plasmodium falciparum, UniProt Q8IBZ9); experiment: cell-based; format: cell-based
Outline: as §1

PfCRT^Dd2 = PfCRT^Dd2 (Plasmodium falciparum, UniProt Q9N623, A220S/I356T/K76T/M74I/N326S/N75E/Q271E/R371I); experiment: cell-based; format: cell-based; conditions: […]; for activity at 45000 µM: [test solute]i = 45 mM (30 mM for some solutes due to solubility)
Outline: as §1

PfCRT^Ecu1110 [2] = biological target: T1, PfCRT^Ecu1110; experiment: cell-based; format: cell-based; conditions: […]
Outline: as §1

PfNT1 = biological target: T2, PfNT1 (Plasmodium falciparum, UniProt Q8IDM6); experiment: cell-based; format: cell-based; conditions: for activity at 5000 µM: total [3H]CQ transport
T2 construct: expressed in transfected cells; host or cells: Xenopus laevis oocytes (stage V-VI), cRNA-injected
Outline: as §1

PfCRT [3] = experiment: Influx of VF-6 via PfCRT into the oocyte, solutes tested as potential co-substrates; format: cell-based, Plasmodium falciparum; parameters: key: X: Compounds that have been tested as potential co-substrates but are not required for influx of VF-6 via PfCRT into the oocyte; conditions: X marks the solute
PfCRT [4] = experiment: Test of solutes as potential co-substrates for influx of VF-6 via PfCRT into the oocyte; format: cell-based, Plasmodium falciparum; parameters: key: X: Compounds that have been tested as potential co-substrates but are not required for influx of VF-6 via PfCRT into the oocyte; conditions: X = tested

PfCRT^3D7, sequence (Q8IBZ9 59-398): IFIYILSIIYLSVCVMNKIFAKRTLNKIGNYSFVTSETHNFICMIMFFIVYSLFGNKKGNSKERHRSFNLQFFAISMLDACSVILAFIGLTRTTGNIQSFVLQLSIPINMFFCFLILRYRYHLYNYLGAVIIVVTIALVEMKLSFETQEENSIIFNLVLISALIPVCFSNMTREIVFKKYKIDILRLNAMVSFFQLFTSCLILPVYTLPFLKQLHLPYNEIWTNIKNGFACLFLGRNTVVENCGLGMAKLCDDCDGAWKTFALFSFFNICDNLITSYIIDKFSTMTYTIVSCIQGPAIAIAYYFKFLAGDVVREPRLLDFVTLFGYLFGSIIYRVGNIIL
T2 sequence (Q8IDM6 whole entry): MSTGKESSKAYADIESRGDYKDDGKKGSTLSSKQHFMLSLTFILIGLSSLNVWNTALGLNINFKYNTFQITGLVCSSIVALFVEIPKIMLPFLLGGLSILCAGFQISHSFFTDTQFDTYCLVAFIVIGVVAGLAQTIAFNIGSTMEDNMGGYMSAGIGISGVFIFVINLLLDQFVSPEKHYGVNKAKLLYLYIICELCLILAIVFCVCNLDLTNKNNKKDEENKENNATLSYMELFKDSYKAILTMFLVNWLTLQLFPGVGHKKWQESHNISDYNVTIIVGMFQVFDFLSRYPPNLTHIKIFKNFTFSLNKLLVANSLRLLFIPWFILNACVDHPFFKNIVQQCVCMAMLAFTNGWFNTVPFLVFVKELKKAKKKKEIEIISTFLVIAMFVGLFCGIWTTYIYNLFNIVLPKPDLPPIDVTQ
PfCRT^Dd2, sequence (Q9N623 whole entry A220S/I356T/K76T/M74I/N326S/N75E/Q271E/R371I): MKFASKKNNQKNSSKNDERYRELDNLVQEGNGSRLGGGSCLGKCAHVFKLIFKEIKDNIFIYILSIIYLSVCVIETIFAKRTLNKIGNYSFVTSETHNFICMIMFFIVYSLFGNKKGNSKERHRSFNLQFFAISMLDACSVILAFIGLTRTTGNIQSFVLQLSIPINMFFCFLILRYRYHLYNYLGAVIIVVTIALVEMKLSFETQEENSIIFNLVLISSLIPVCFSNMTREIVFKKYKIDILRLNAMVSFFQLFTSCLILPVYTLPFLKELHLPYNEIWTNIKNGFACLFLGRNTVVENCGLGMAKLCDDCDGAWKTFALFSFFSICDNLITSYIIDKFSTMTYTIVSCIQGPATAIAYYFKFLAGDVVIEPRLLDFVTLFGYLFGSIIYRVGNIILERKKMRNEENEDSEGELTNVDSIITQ
T1 sequence (Q9N623 whole entry A220S/I356L/K76T/N326D): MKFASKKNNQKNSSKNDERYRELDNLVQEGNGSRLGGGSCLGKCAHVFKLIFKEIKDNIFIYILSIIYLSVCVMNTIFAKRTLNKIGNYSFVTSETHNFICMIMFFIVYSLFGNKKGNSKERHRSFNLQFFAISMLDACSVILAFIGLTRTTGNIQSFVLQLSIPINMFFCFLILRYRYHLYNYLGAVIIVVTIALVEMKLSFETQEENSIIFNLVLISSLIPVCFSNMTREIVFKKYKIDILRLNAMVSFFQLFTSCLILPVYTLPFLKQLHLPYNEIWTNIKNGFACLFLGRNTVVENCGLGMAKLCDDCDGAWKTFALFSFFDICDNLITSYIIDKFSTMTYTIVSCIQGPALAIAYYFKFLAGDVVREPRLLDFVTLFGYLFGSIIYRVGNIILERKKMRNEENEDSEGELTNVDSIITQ

CC(C)[C@H](N)C(=O)O [L-valine]
inhibition at 500 µM (PfCRT^Ecu1110 [1]): 30 ± 0.6%
inhibition at 1000 µM (PfCRT^Ecu1110 [1]): 29 ± 1.4%
inhibition at 2000 µM (PfCRT^Ecu1110 [1]): 28 ± 0.4%
Uptake of [3H]CQ (% non-expressing oocyte control), trans-stimulation (non-expressing oocytes; [test solute]i = 5 mM): 99 ± 4.1 % non-expressing oocyte control
Uptake of [3H]CQ (% non-expressing oocyte control), trans-stimulation (non-expressing oocytes; [test solute]i = 45 mM (30 mM for some solutes due to solubility)): 100 ± 2.6 % non-expressing oocyte control
Uptake of [3H]CQ (% PfCRTDd2 control), trans-stimulation, non-expressing oocytes (non-expressing oocytes; [test solute]i = 5 mM (intracellular)): 2.6 ± 0.08 % PfCRTDd2 control
Uptake of [3H]CQ (% PfCRTDd2 control), trans-stimulation, non-expressing oocytes (non-expressing oocytes; [test solute]i = 45 mM (intracellular; 30 mM for some solutes due to solubility)): 2.7 ± 0.03 % PfCRTDd2 control
activity at 5000 µM (PfCRT^3D7; PfCRT3D7 oocytes, [test solute]i = 5 mM, total [3H]CQ transport, normalised to the oocyte type control, read-out: Uptake of [3H]CQ (% PfCRT3D7 control), trans-stimulation): 98 ± 4.2%
[3H]CQ transport (% PfCRT3D7 control), trans-stimulation, PfCRT3D7 (PfCRT^3D7; SEM): 0.3 ± 0.01 % PfCRT3D7 control
activity at 5000 µM (PfCRT^3D7; [test solute]i = 5 mM (intracellular), PfCRT3D7 oocytes, normalised to oocyte type control, read-out: PfCRT-mediated [3H]CQ transport, trans-stimulation (% PfCRT3D7 control)): 96 ± 3.3%
activity at 45000 µM (PfCRT^3D7; SEM, read-out: Uptake of [3H]CQ (% PfCRTDd2 control), trans-stimulation, PfCRT3D7): 3.3 ± 0.01%
activity at 45000 µM (PfCRT^3D7; read-out: PfCRT-mediated [3H]CQ transport, trans-stimulation (% PfCRT3D7 control)): 96 ± 2.4%
activity at 45000 µM (PfCRT^3D7; read-out: Uptake of [3H]CQ (% PfCRT3D7 control), trans-stimulation): 98 ± 3.7%
activity at 5000 µM (PfCRT^3D7; total [3H]CQ transport, [test solute]i = 5 mM (intracellular), mean ± SEM, SEM, read-out: Uptake of [3H]CQ (% PfCRTDd2 control), trans-stimulation, PfCRT3D7): 3.3 ± 0.05%
activity at 5000 µM (PfCRT^Dd2; pH 5.5, read-out: PfCRT-mediated [3H]CQ transport, trans-stimulation (% PfCRTDd2 control), [test solute]i = 5 mM (intracellular), PfCRTDd2 oocytes, normalised to oocyte type control): 97 ± 4.2%
activity at 5000 µM (PfCRT^Dd2; pH 5.5, read-out: Uptake of [3H]CQ (% PfCRTDd2 control), trans-stimulation, PfCRTDd2, total [3H]CQ transport, [test solute]i = 5 mM (intracellular), mean ± SEM, SEM): 99 ± 3.2%
activity at 5000 µM (PfCRT^Dd2; pH 5.5, read-out: Uptake of [3H]CQ (% PfCRTDd2 control), trans-stimulation, PfCRTDd2 oocytes, [test solute]i = 5 mM, total [3H]CQ transport, normalised to the oocyte type control): 99 ± 3.2%
activity at 45000 µM (PfCRT^Dd2; pH 5.5, read-out: Uptake of [3H]CQ (% PfCRTDd2 control), trans-stimulation, PfCRTDd2 oocytes, total [3H]CQ transport, normalised to the oocyte type control): 97 ± 1.1%
activity at 5000 µM (PfCRT^Dd2; pH 5.5, read-out: [3H]CQ transport (% PfCRTDd2 control), trans-stimulation, PfCRTDd2, trans-stimulation, [test solute]i = 5 mM (injected), PfCRT-mediated component (background subtracted), mean ± SEM, SEM): 97 ± 4.2%
activity at 45000 µM (PfCRT^Dd2; pH 5.5, read-out: [3H]CQ transport (% PfCRTDd2 control), trans-stimulation, PfCRTDd2, trans-stimulation, PfCRT-mediated component (background subtracted), mean ± SEM, SEM): 95 ± 2.5%
activity at 5000 µM (PfCRT^Ecu1110 [2]; pH 5.5, read-out: PfCRT-mediated [3H]CQ transport, trans-stimulation (% PfCRTEcu1110 control), [test solute]i = 5 mM (intracellular), PfCRTEcu1110 oocytes, normalised to oocyte type control): 96 ± 3.3%
activity at 5000 µM (PfCRT^Ecu1110 [2]; pH 5.5, read-out: Uptake of [3H]CQ (% PfCRTEcu1110 control), trans-stimulation, PfCRTEcu1110 oocytes, [test solute]i = 5 mM, total [3H]CQ transport, normalised to the oocyte type control): 98 ± 3.6%
activity at 45000 µM (PfCRT^Ecu1110 [2]; pH 5.5, read-out: Uptake of [3H]CQ (% PfCRTEcu1110 control), trans-stimulation, PfCRTEcu1110 oocytes, [test solute]i = 45 mM (30 mM for some solutes due to solubility), total [3H]CQ transport, normalised to the oocyte type control): 100 ± 2.5%
activity at 5000 µM (PfCRT^Ecu1110 [2]; read-out: Uptake of [3H]CQ (% PfCRTDd2 control), trans-stimulation, PfCRTEcu1110, total [3H]CQ transport, [test solute]i = 5 mM (intracellular), mean ± SEM, SEM): 35 ± 1.6%
activity at 45000 µM (PfCRT^Ecu1110 [2]; read-out: Uptake of [3H]CQ (% PfCRTDd2 control), trans-stimulation, PfCRTEcu1110, total [3H]CQ transport, [test solute]i = 45 mM (intracellular; 30 mM for some solutes due to solubility), mean ± SEM, SEM): 36 ± 1.4%
activity at 5000 µM (PfNT1; PfNT1 oocytes, [test solute]i = 5 mM, normalised to the oocyte type control, read-out: Uptake of [3H]CQ (% PfNT1 control), trans-stimulation): 99 ± 2.9%
activity at 45000 µM (PfNT1; SEM, read-out: Uptake of [3H]CQ (% PfCRTDd2 control), trans-stimulation, PfNT1): 2.9 ± 0.04%
activity at 45000 µM (PfNT1; read-out: Uptake of [3H]CQ (% PfNT1 control), trans-stimulation): 100 ± 3.2%
activity at 5000 µM (PfNT1; [test solute]i = 5 mM (intracellular), mean ± SEM, SEM, read-out: Uptake of [3H]CQ (% PfCRTDd2 control), trans-stimulation, PfNT1): 2.7 ± 0.01%
Compounds that have been tested as potential co-substrates but are not required for influx of VF-6 via PfCRT into the oocyte (PfCRT [3]): X
Tested as potential co-substrate but not required for influx of VF-6 via PfCRT into the oocyte (PfCRT [4]): X
